The values below come from patent US9890185B2, “Urea derivatives useful as kinase inhibitors” (Respivert Limited, priority 2013, dated 2018).

In test [1] the test system is PBMCs. Put plainly: LPS-induced IL-8 release in PBMC cells (assay b). In kind it is cell-based, human. The following applies: Homo sapiens, PBMC; LPS-stimulated PBMCs; read-out: IC50 Values for Inhibition of Cytokine Release, PBMCs IL-8. The gist of the method: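 Human PBMCs from healthy donors, isolated by density gradient, were pretreated with compound for 2 h and then stimulated with 1 ng/mL LPS (E. coli 0111:B4) for 24 h at 37° C, 5% CO2. Supernatant IL-8 and TNFα were measured by sandwich ELISA, and IC50 was taken from the dose-response curve.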

Another test addresses GSK 3α (Homo sapiens (Human), UniProt P49840). Put plainly: GSK 3α enzyme inhibition (FRET, Z-LYTE, Method 2). Type of test: biochemical. The following applies: read-out: IC50 Values for Enzyme Inhibition, GSK3α. The method, boiled down:
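Human GSK3α (500 ng/mL) preincubated with compound (4, 0.4, 0.04 or 0.004 μg/mL) at RT for 2 h (Method 1) or 105 min (Method 2). Then FRET peptide (8 μM) and ATP (40 μM) added for 1 h, followed by protease development for 1 h. IC50 from the coumarin/fluorescein emission ratio relative to uninhibited control.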

For the next test, the target named is Syk (Homo sapiens (Human), UniProt P43405). The test can be described thus: Syk enzyme inhibition (FRET, Z-LYTE). In kind it is biochemical. As for the experimental part:
(§1) The enzyme inhibitory activities of compounds disclosed herein are determined by FRET using synthetic peptides labelled with both donor and acceptor fluorophores (Z-LYTE, Invitrogen Ltd., Paisley, UK).
(§2) The inhibitory activities of compounds of the invention against c-Src and Syk enzymes (Invitrogen), are evaluated in a similar fashion to that described hereinabove. The relevant enzyme (3000 ng/mL or 2000 ng/mL respectively, 2.5 μL) is incubated with the test compound (either 4 μg/mL, 0.4 μg/mL, 0.04 μg/mL, or 0.004 μg/mL, 2.5 μL each) for 2 hr at RT. The FRET peptides (8 μM, 2.5 μL), and appropriate ATP solutions (2.5 μL, 800 μM for c-Src, and 60 μM ATP for Syk) are then added to the enzymes/compound mixtures and incubated for 1 hr. Development reagent (protease, 5 μL) is added for 1 hr prior to detection in a fluorescence microplate reader (Varioskan® Flash, ThermoFisher Scientific).
(§3) In all cases, the site-specific protease cleaves non-phosphorylated peptide only and eliminates the FRET signal. Phosphorylation levels of each reaction are calculated using the ratio of coumarin emission (donor) over fluorescein emission (acceptor), for which high ratios indicate high phosphorylation and low ratios indicate low phosphorylation levels. The percentage inhibition of each reaction is calculated relative to non-inhibited control and the 50% inhibitory concentration (IC50 value) is then calculated from the concentration-response curve.

The target in test [2] is p38 MAPKα isoform (MAPK14) (Homo sapiens (Human), UniProt Q16539). The test can be described thus: p38 MAPKα enzyme inhibition (FRET, Z-LYTE, Method 2). Type of test: biochemical. As for the experimental part:
as §1
The following two assay variants can be used for determination of p38 MAPKα inhibition.
The inhibitory activities of test compounds against the p38 MAPKα isoform (MAPK14: Invitrogen), are evaluated indirectly by determining the level of activation/phosphorylation of the down-stream molecule, MAPKAP-K2. The p38 MAPKα protein (80 ng/mL, 2.5 μL) is mixed with the test compound (2.5 μL of either 4 μg/mL, 0.4 μg/mL, 0.04 μg/mL or 0.004 μg/mL) for 2 hr at RT. […] The mixture is incubated for 1 hr at RT. Development reagent (protease, 5 μL) is added for 1 hr prior to detection in a fluorescence microplate reader (Varioskan® Flash, ThermoFisher Scientific).
This method follows the same steps as Method 1 above, but utilises a higher concentration of the p38 MAPKα protein (2.5 μL of 200 ng/mL protein instead of 2.5 μL of 80 ng/mL protein) for mixing with the test compound.
as §3

In the next test the target is c-Src (Homo sapiens (Human), UniProt P12931). Put plainly: c-Src enzyme inhibition (FRET, Z-LYTE). Type of test: biochemical. As for the experimental part: as §1, §2, §3
For a further test, the system named is d-U937 cells. The test can be described thus: Accumulation of β catenin in d-U937 cells (assay m). In kind it is cell-based, human. The following applies: percentage relative to Reference Compound at 1 μg/mL. Here is the method: U937 cells, a human monocytic cell line, are differentiated into macrophage-type cells by incubation with PMA; (100 ng/mL) for between 48 to 72 hr. The cells are then incubated with either final concentrations of test compound or vehicle for 18 hr. The induction of β-catenin by the test compounds is stopped by replacing the media with 4% formaldehyde solution. Endogenous peroxide activity is neutralised by incubating with quenching buffer (100 μL, 0.1% sodium azide, 1% H2O2 in PBS with 0.05% Tween-20) for 20 min. The cells are washed with washing buffer (200 μL; PBS containing 0.05% Tween-20) and incubated with blocking solution (200 μL; 5% milk in PBS) for 1 hr, re-washed with washing buffer (200 μL) and then incubated overnight with anti-β-catenin antibody solution (50 μL) in 1% BSA/PBS (BD, Oxford, UK).
After washing with washing buffer (3×200 μL; PBS containing 0.05% Tween-20), cells are incubated with an HRP-conjugated secondary antibody solution (100 μL) in 1% BSA/PBS (Dako, Cambridge, UK) and the resultant signal is determined colourimetrically (OD: 450 nm with a reference wavelength of 655 nm) using TMB substrate (50 μL; R&D Systems, Abingdon, UK). This reaction is stopped by addition of 1N H2SO4 solution (50 μL). Cells are then washed with washing buffer and 2% crystal violet solution (50 μL) is applied for 30 min. After washing with washing buffer (3×200 μL), 1% SDS (100 μL) is added to each well and the plates are shaken lightly for 1 hr prior to measuring the absorbance at 595 nm (Varioskan® Flash, Thermo-Fisher Scientific).
The measured OD450-655 readings are corrected for cell number by dividing the OD450-655 by the OD595 readings.

The test system of test [3] is PBMCs. The test can be described thus: Cell mitosis assay in PBMCs (assay g). Type of test: cell-based. The note with it: Homo sapiens, PBMC, test compound 5 μg/mL. As for the experimental part: Peripheral blood mononucleocytes (PBMCs) from healthy subjects are separated from whole blood (Quintiles, London, UK) using a density gradient (Histopaque®-1077, Sigma-Aldrich, Poole, UK). The PBMCs (3 million cells per sample) are subsequently treated with 2% PHA (phytohaemagglutinin, Sigma-Aldrich, Poole, UK) for 48 hr, followed by a 20 hr exposure to varying concentrations of test compounds. At 2 hr before collection, PBMCs are treated with demecolcine (0.1 μg/mL; Invitrogen, Paisley, UK) to arrest cells in metaphase. To observe mitotic cells, PBMCs are permeabilised and fixed by adding Intraprep (50 μL; Beckman Coulter, France), and stained with anti-phospho-histone 3 (0.26 ng/L; #9701; Cell Signalling, Danvers, Mass.) and propidium iodide (1 mg/mL; Sigma-Aldrich, Poole, UK) as previously described (Muehlbauer P. A. and Schuler M. J., Mutation Research, 2003, 537:117-130). Fluorescence is observed using an ATTUNE flow cytometer (Invitrogen, Paisley, UK), gating for lymphocytes. The percentage inhibition of mitosis is calculated for each treatment relative to vehicle (0.5% DMSO) treatment.

Sequence of GSK 3α (P49840 whole entry): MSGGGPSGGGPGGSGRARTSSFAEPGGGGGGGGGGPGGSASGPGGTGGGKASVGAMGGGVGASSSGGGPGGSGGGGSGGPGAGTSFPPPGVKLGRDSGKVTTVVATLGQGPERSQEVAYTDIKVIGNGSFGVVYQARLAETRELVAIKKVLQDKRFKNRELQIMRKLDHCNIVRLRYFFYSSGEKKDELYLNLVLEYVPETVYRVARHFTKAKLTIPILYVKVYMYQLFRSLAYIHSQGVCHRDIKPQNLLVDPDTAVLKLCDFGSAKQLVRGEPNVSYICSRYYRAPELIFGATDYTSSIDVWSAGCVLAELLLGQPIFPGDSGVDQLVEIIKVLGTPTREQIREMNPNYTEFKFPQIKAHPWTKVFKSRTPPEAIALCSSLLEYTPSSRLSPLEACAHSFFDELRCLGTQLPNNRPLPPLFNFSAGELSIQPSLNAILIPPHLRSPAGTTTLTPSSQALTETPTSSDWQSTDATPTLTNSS
Sequence of p38 MAPKα isoform (MAPK14) (Q16539 whole entry, canonical isoform): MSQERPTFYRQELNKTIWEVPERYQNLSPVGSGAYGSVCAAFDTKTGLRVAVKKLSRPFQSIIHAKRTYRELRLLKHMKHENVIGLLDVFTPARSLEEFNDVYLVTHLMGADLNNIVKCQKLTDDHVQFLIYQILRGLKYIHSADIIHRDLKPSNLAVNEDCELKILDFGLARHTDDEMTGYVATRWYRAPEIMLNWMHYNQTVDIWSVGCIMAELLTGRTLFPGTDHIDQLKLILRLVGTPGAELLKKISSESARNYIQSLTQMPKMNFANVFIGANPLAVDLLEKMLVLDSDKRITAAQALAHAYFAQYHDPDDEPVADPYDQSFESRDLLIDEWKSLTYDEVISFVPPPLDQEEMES
Sequence of c-Src (P12931 whole entry, looked up): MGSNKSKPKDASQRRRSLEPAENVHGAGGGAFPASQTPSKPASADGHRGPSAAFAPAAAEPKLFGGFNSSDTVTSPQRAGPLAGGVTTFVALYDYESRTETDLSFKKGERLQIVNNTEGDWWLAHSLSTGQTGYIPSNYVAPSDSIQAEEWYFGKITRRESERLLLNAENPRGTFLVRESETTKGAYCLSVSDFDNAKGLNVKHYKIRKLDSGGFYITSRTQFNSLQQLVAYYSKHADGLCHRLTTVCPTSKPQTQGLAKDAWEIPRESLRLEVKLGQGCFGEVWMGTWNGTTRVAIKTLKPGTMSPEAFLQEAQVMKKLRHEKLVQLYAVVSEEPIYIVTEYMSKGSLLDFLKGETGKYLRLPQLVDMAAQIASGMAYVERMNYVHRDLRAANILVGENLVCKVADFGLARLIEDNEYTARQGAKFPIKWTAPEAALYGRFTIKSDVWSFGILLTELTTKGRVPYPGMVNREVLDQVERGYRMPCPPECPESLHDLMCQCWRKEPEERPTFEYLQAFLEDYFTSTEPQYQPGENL

A word on the IC50: it is the concentration needed to halve the response being measured. Consider `COc1cccc(Nc2cc(Oc3ccc(NC(=O)Nc4cc(C(C)(C)C)cc(P(C)(C)=O)c4OC)c4ccccc34)ccn2)c1` [15(af), 1-(5-(tert-butyl)-3-(dimethylphosphoryl)-2-methoxyphenyl)-3-(4-((2-((3-methoxy-phenyl)amino)pyridin-4-yl)oxy)naphthalen-1-yl)urea], for which the half-inhibitory concentration (IC50) in the test on PBMCs [1] was 2.7 nM; on GSK 3α it was 9400 nM; against Syk, 278 nM; in test [2] it was 226 nM; on c-Src it was 77 nM. In addition, the “% β-catenin induction” value with d-U937 cells (test compound 1 μg/mL) is given as −2.0%; in the test with d-U937 cells (test compound 5 μg/mL) it was 13.0%; in the test on d-U937 cells (test compound 10 μg/mL), 32.0%.

Consider `COc1c(NC(=O)Nc2ccc(Oc3ccnc(N(C)C)n3)c3ccccc23)cc(C(C)(C)C)cc1P(C)(C)=O` [15(ak), 1-(5-(tert-butyl)-3-(dimethylphosphoryl)-2-methoxyphenyl)-3-(4-((2-(dimethylamino)-pyrimidin-4-yl)oxy)naphthalen-1-yl)urea], for which the half-inhibitory concentration (IC50) with PBMCs [1] is 26 nM; at GSK 3α, more than 17800 nM; on Syk, more than 1780 nM; in test [2], 38 nM; at c-Src, more than 1780 nM.

As for `COc1c(NC(=O)Nc2ccc(Oc3ccnc(Nc4ccccc4)n3)c3ccccc23)cc(C(C)(C)C)cc1P(C)(C)=O` [15(b), 1-(5-(tert-butyl)-3-(dimethylphosphoryl)-2-methoxyphenyl)-3-(4-((2-(phenylamino)-pyrimidin-4-yl)oxy)naphthalen-1-yl)urea], the IC50 in the test with PBMCs [1] stood at 4.5 nM; at GSK 3α, 785 nM; against Syk it was 273 nM; in test [2], 59 nM; at c-Src, 14 nM.

For `COc1c(NC(=O)Nc2ccc(Oc3ccnc(Nc4cc(C)c5[nH]ncc5c4)n3)c3ccccc23)cc(C(C)(C)C)cc1P(C)(C)=O` [15(j), 1-(5-(tert-butyl)-3-(dimethylphosphoryl)-2-methoxyphenyl)-3-(4-((2-((7-methyl-1H-indazol-5-yl)amino)pyrimidin-4-yl)oxy)naphthalen-1-yl)urea], the IC50 in the test on PBMCs [1] came to 3.2 nM; at GSK 3α it was 855 nM; on Syk, 16 nM; in test [2], 173 nM; against c-Src, 19 nM.

Broadly, the inhibition is how much of the control response was suppressed. Lower therefore signals a response near the control. On to `COc1c(CC(N)=O)cc(C(C)(C)C)cc1NC(=O)Nc1ccc(Oc2ccnc(Nc3cc(OCCN4CCOCC4)cc(C(F)(F)F)c3)c2)c2ccccc12` [38(w), 2-(5-(tert-Butyl)-2-methoxy-3-(3-(4-((2-((3-(2-morpholinoethoxy)-5-(trifluoromethyl)-phenyl)amino)pyridin-4-yl)oxy)naphthalen-1-yl)ureido)phenyl)acetamide], for which the 50% inhibitory concentration (IC50) in the test on PBMCs [1] was 4 nM; on GSK 3α, more than 12700 nM. Besides, 5 µg/mL produced 23.9% inhibition with PBMCs [3].

In the case of `COc1c(NC(=O)Nc2ccc(Oc3ccnc(Nc4cc(OCCN5CCOCC5)cc(C(F)(F)F)c4)c3)c3ccccc23)cc(C(C)(C)C)cc1[S+](C)[O-]` (stereo not drawn) [38(x), 1-(5-(tert-Butyl)-2-methoxy-3-(methylsulfinyl)phenyl)-3-(4-((2-((3-(2-morpholinoethoxy)-5-(trifluoromethyl)phenyl)amino)pyridin-4-yl)oxy)naphthalen-1-yl)urea], the IC50 was 4.1 nM in the test with PBMCs [1] and more than 12600 nM on GSK 3α. In the test with PBMCs [3], this molecule showed an inhibition at 5 µg/mL of 35%.

With `COc1cc(Nc2cc(Oc3ccc(NC(=O)Nc4cc(C(C)(C)C)cc(P(C)(C)=O)c4OC)c4ccccc34)ccn2)cc(S(=O)(=O)N(C)CCN2CCN(C)CC2)c1` [79(m), 3-((4-((4-(3-(5-(tert-Butyl)-3-(dimethylphosphoryl)-2-methoxyphenyl)ureido)naphthalen-1-yl)oxy)pyridin-2-yl)amino)-5-methoxy-N-methyl-N-(2-(4-methylpiperazin-1-yl)ethyl)benzene sulfonamide], the IC50 in the test with PBMCs [1] stood at 1.8 nM; at Syk, 7 nM; in test [2], 6 nM; against c-Src, 25 nM.

Take `COCCOCCOCCNC(=O)c1cc(C(C)(C)C)cc(NC(=O)Nc2ccc(Oc3ccnc(Nc4cc(OC)cc(OCCOCCOCCOC)c4)n3)c3ccccc23)c1OC` [Example 7, 5-(tert-Butyl)-2-methoxy-3-(3-(4-((2-((3-methoxy-5-(2-(2-(2-methoxyethoxy)ethoxy)ethoxy)-phenyl)amino)pyrimidin-4-yl)oxy)naphthalen-1-yl)ureido)-N-(2-(2-(2-methoxyethoxy)ethoxy)-ethyl)benzamide]: the concentration for half-maximal inhibition (IC50) in the test on PBMCs [1] was found to be 4.6 nM; at GSK 3α it was 1070 nM; against Syk, 57 nM; in test [2] it was 108 nM.

For `COc1c(NC(=O)Nc2ccc(Oc3ccnc(NCc4ccccn4)n3)c3ccccc23)cc(C(C)(C)C)cc1P(C)(C)=O` [Example 32, 1-(5-(tert-Butyl)-3-(dimethylphosphoryl)-2-methoxyphenyl)-3-(4-((2-((pyridin-2-ylmethyl)-amino)pyrimidin-4-yl)oxy)naphthalen-1-yl)urea], the IC50 stood at 1.8 nM with PBMCs [1]; 988 nM at GSK 3α; 1600 nM at Syk; 6 nM in test [2]; 1110 nM against c-Src.
